This is an account of results in ChEMBL document CHEMBL5236660, “Design, synthesis, and biological evaluation of quinoxalinone derivatives as potent BRD4 inhibitors” (Bioorg Med Chem, 2023).

Structures are written as SMILES. The source made the active and inactive calls. The calls are words filed in the database; no cut-off is given here. A value given as a limit tells only on which side of the number the result lay.

In data set [1] the target is Bromodomain-containing protein 4 (Homo sapiens, UniProt O60885). In words: Inhibition of BRD4 BD1 (unknown origin) by TR-FRET assay.
In data set [2] the test system is HepG2. Put plainly: Antiproliferative activity against human HepG2 cells assessed as reduction in cell viability incubated for 72 hrs by MTT assay. The format is functional, cell-based. Particulars: HepG2, 72 h. On the technique in general: Tetrazolium dyes change colour on reduction, which living cells bring about.
A short description of data set [3]: Cytotoxicity against human GES1 cells assessed as reduction in cell viability incubated for 72 hrs by MTT assay. The format is toxicity, cell-based.
For data set [4], the system named is MCF7. Put plainly: Antiproliferative activity against human MCF7 cells assessed as reduction in cell viability incubated for 72 hrs by MTT assay. The format is functional, cell-based. The note with it: MCF7, 72 h.
In data set [5] the test system is HT-29. Put plainly: Antiproliferative activity against human HT-29 cells assessed as reduction in cell viability incubated for 72 hrs by MTT assay. The format is functional, cell-based. Particulars: HT-29, 72 h.
Data set [6] relates to HepG2. Put plainly: Induction of cell cycle arrest in human HepG2 cells assessed as accumulation at G2/M phase at 5 uM incubated for 24 hrs by flow cytometry (Rvb= 14.05%). The format is functional. In general terms: In flow cytometry, cells or beads pass a laser one at a time.
Data set [7] has as its system HepG2. Put plainly: Induction of apoptosis in human HepG2 cells assessed as increase in p21 level at 2.5 uM incubated for 24 hrs by Western blot analysis. The format is functional, cell-based. (In western blotting, separated proteins are transferred to a membrane and probed.)
The test system of data set [8] is HepG2. Put plainly: Induction of cell cycle arrest in human HepG2 cells assessed as accumulation at G0/G1 phase at 5 uM incubated for 24 hrs by flow cytometry (Rvb= 46.5%). The format is functional.
Data set [9] deals with HepG2. Put plainly: Inhibition of c-myc expression in human HepG2 cells at 5 uM incubated for 24 hrs by Western blot analysis. The format is functional, cell-based.
The test system of data set [10] is HepG2. Put plainly: Induction of apoptosis in human HepG2 cells assessed as late apoptotic cells at 5 uM incubated for 24 hrs by Annexin-V/PI staining based flow cytometry (Rvb=0.66%). The format is functional.
Data set [11] deals with HepG2. Put plainly: Induction of apoptosis in human HepG2 cells assessed as necrotic cells at 5 uM incubated for 24 hrs by Annexin-V/PI staining based flow cytometry (Rvb=0.85%). The format is functional.
Data set [12] concerns HepG2. In words: Induction of apoptosis in human HepG2 cells assessed as early apoptotic cells at 5 uM incubated for 24 hrs by Annexin-V/PI staining based flow cytometry (Rvb=4.48%). The format is functional.
The subject of data set [13] is HepG2. Put plainly: Induction of cell cycle arrest in human HepG2 cells assessed as accumulation at S phase at 5 uM incubated for 24 hrs by flow cytometry (Rvb= 20.1%). The format is functional.
Data set [14] concerns HepG2. Put plainly: Induction of apoptosis in human HepG2 cells assessed as increase in cleaved caspase-3 level at 2.5 uM incubated for 24 hrs by Western blot analysis. The format is functional, cell-based.
Data set [15] concerns HepG2. In words: Induction of apoptosis in human HepG2 cells assessed as viable cells at 5 uM incubated for 24 hrs by Annexin-V/PI staining based flow cytometry (Rvb=94.0%). The note with it: read-out: Activity. The format is functional.
For data set [16], the system named is HepG2. In words: Induction of apoptosis in human HepG2 cells assessed as total apoptotic cells at 5 uM incubated for 24 hrs by Annexin-V/PI staining based flow cytometry (Rvb=5.14%). The format is functional.

Take `Cc1nc2cc(-c3cc(NS(C)(=O)=O)ccc3Oc3ccc(F)cc3Cl)ccc2[nH]c1=O`: the IC50 (usually the midpoint of a concentration-inhibition curve) in data set [1] worked out at 1.56 µM.

Take `Cc1nc2cc(-c3cc(S(C)(=O)=O)ccc3Oc3ccc(F)cc3F)ccc2[nH]c1=O`: half-maximal inhibition in [1] (IC50) was put at 3.97 µM.

With `Cc1nc2cc(-c3cc(NS(C)(=O)=O)ccc3Oc3ccc(F)cc3)ccc2[nH]c1=O`, the 50% inhibitory concentration (IC50) in data set [2] was determined as 11.3 µM; in data set [4] it was 3.81 µM; in data set [5], 6.4 µM; in data set [1], 0.103 µM. Also, in [3], the half-maximal inhibitory concentration (IC50) at 72 h came out at 36.5 µM.

For the molecule `Cc1nc2cc(-c3cc(CS(C)(=O)=O)ccc3Oc3ccc(F)cc3F)ccc2[nH]c1=O`, the IC50 in [2] is 22.9 µM; in data set [4], over 50 µM; in data set [5], 17.6 µM; in data set [1] it was 0.753 µM. For the same molecule, the concentration for half-maximal inhibition (IC50) at 72 h in [3] was 36.1 µM.

In data set [1], `Cc1nc2cc(-c3cc(C(C)(C)O)ccc3Oc3ccc(F)cc3F)ccc2[nH]c1=O` registered a 50% inhibitory concentration (IC50) of 1.13 µM.

Turning to `Cc1nc2cc(-c3cc(NS(C)(=O)=O)ccc3Oc3ccc(F)cc3F)ccc2[nH]c1=O`, the values for the IC50 in data set [2], in data set [4] and in data set [5] were 16.1 µM, 7.44 µM and 6.86 µM, respectively. The IC50 at 72 h in [3] came to 33.5 µM.

On to `COC(=O)c1ccc(Oc2ccc(F)cc2F)c(-c2ccc3[nH]c(=O)c(C)nc3c2)c1`, for which the IC50 in data set [1] stood at 4.22 µM.

Regarding `CCc1nc2cc(-c3cc(NS(C)(=O)=O)ccc3Oc3ccc(F)cc3F)ccc2[nH]c1=O`, the half-maximal inhibitory concentration (IC50) in [2] worked out at 14.8 µM; in [4], 1.93 µM; in data set [5], 16.5 µM. The IC50 at 72 h in data set [3] turned out to be 29.8 µM.

With `CCS(=O)(=O)Nc1ccc(Oc2ccc(F)cc2F)c(-c2ccc3[nH]c(=O)c(C)nc3c2)c1`, the IC50 in data set [2] worked out at 5.41 µM; in data set [4], 9.78 µM; in data set [5], 16.8 µM; in data set [1], 0.0483 µM. Also, in data set [3], the IC50 at 72 h was determined as 20.2 µM.

`Cc1ccccc1Oc1ccc(NS(C)(=O)=O)cc1-c1ccc2[nH]c(=O)c(C)nc2c1` registered a half-maximal inhibitory concentration (IC50) in data set [1] of 2.12 µM.

On to `Cc1nc2cc(-c3cc(C(=O)N4CCN(C)CC4)ccc3Oc3ccc(F)cc3F)ccc2[nH]c1=O`, for which the half-maximal inhibitory concentration (IC50) in data set [1] was 1.31 µM.

Molecule `Cc1nc2cc(-c3cc(C=O)ccc3Oc3ccc(F)cc3F)ccc2[nH]c1=O` displayed an IC50 in [1] of 2.51 µM.

`COc1cc(Cl)ccc1Oc1ccc(NS(C)(=O)=O)cc1-c1ccc2[nH]c(=O)c(C)nc2c1` came in with an IC50 in [1] of 2.33 µM.

In [1], `Cc1nc2cc(-c3cc(NS(C)(=O)=O)ccc3Oc3ccccc3C(F)(F)F)ccc2[nH]c1=O` returned a concentration for half-maximal inhibition (IC50) of 2.65 µM.

`Cc1nc2cc(-c3cc(C(C)O)ccc3Oc3ccc(F)cc3F)ccc2[nH]c1=O` (stereo not given): the IC50 in data set [2] turned out to be 33.5 µM; in data set [4], 34.5 µM; in data set [5], 20.2 µM; in [1], 0.406 µM. Also, the IC50 at 72 h in data set [3] came out at 30.8 µM.

In data set [1], `Cc1nc2cc(-c3cc(C(=O)N4CCOCC4)ccc3Oc3ccc(F)cc3F)ccc2[nH]c1=O` displayed an IC50 of 1.48 µM.

Regarding `CCS(=O)(=O)Cc1ccc(Oc2ccc(F)cc2F)c(-c2ccc3[nH]c(=O)c(C)nc3c2)c1`, the IC50 in data set [2] is over 50 µM; in [4], over 50 µM; in [5], 25.1 µM; in data set [1] it was 0.777 µM. Besides, the IC50 at 72 h in data set [3] turned out to be 45.8 µM.

In the case of `CCS(=O)(=O)Nc1ccc(Oc2ccc(F)cc2F)c(-c2cn(C)c(=O)c3[nH]ccc23)c1` [MIVEBRESIB], the Activity was determined as 19.6% in data set [6]; 56.2% in data set [8]; 2.81% in data set [10]; 1.63% in [11]; 32% in data set [12]; 13.1% in [13]. The Activity in data set [16] was 34.81%. The IC50 in [2] was found to be 4.29 µM; in data set [4] it was 12.3 µM; in data set [5], 1.84 µM; in data set [1] it was 0.0007 µM. Further, the result in data set [7] and in [14] was Active. Further, the inhibition entry in data set [9] was “Active”. Also, the 50% inhibitory concentration (IC50) at 72 h in [3] amounted to 4.31 µM. Besides, the viability at 5 µM in data set [15] was 63.6%.

Take `Cc1nc2cc(-c3cc(C(=O)NCCO)ccc3Oc3ccc(F)cc3F)ccc2[nH]c1=O`: the concentration for half-maximal inhibition (IC50) is 17.9 µM in [2], over 50 µM in data set [4], 15.1 µM in data set [5] and 0.621 µM in data set [1]. Moreover, the IC50 at 72 h in data set [3] was over 100 µM.

In the case of `Cc1nc2cc(-c3cc(NS(C)(=O)=O)ccc3Oc3ccc(Cl)cc3)ccc2[nH]c1=O`, the IC50 in [2] worked out at 11.3 µM; in data set [4], 4.64 µM; in [5] it was 8.09 µM; in [1], 0.341 µM. Besides, in [3], the half-inhibitory concentration (IC50) at 72 h amounted to 18.1 µM.

In turn, `COc1ccccc1Oc1ccc(NS(C)(=O)=O)cc1-c1ccc2[nH]c(=O)c(C)nc2c1` gave a half-inhibitory concentration (IC50) in data set [1] of 2.83 µM.
